In publication PMC11396129, “Oxindole–benzothiazole hybrids as CDK2 inhibitors and anticancer agents: design, synthesis and biological evaluation” (BMC Chemistry, 2024):

Key:
Assay type in all cases: cell-based, human
MDA-MB-468 = assay: NCI 60 panel growth inhibition (SRB), breast cancer; details: MDA-MB-468, 10 μM
In short: (§1)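 Seeding 5000–40,000 cells/well per doubling time; Tz plates TCA-fixed at 24 h. Five concentrations, 10-fold or ½ log steps, from DMSO concentrate at 400× top dose. Dose-response parameters incl. TGI; values beyond range given as > or < tested limits.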

MCF7 = assay: as above; details: MCF7, 10 μM
In short: as §1

HS 578T = assay: as above; details: 10 μM
In short: as §1

BT-549 = assay: as above; details: BT-549, 10 μM
In short: as §1

T-47D = assay: as above; details: 10 μM
In short: as §1

MDA-MB-231/ATCC = assay: as above; details: 10 μM
In short: as §1

DU-145 = assay: NCI 60 panel growth inhibition (SRB), prostate cancer; details: DU-145, 10 μM
In short: as §1

PC-3 = assay: as above; details: PC-3, 10 μM
In short: as §1

OVCAR-8 = assay: NCI 60 panel growth inhibition (SRB), ovarian cancer; details: OVCAR-8, 10 μM
In short: as §1

OVCAR-3 = assay: as above; details: OVCAR-3, 10 μM
In short: as §1

IGROV1 = assay: as above; details: IGROV1, 10 μM
In short: as §1

SK-OV-3 = assay: as above; details: SK-OV-3, 10 μM
In short: as §1

OVCAR-5 = assay: as above; details: OVCAR-5, 10 μM
In short: as §1

NCI/ADR-RES = assay: as above; details: 10 μM
In short: as §1

OVCAR-4 = assay: as above; details: OVCAR-4, 10 μM
In short: as §1

CCRF-CEM = assay: NCI 60 panel growth inhibition (SRB), leukemia; details: 10 μM
In short: as §1

RPMI-8226 = assay: NCI 60 panel growth inhibition (SRB), leukemia; details: RPMI-8226, 10 μM
In short: as §1

MOLT-4 = assay: NCI 60 panel growth inhibition (SRB), leukemia; details: MOLT-4, 10 μM
In short: as §1

SR = assay: NCI 60 panel growth inhibition (SRB), leukemia; details: 10 μM
In short: as §1

HL-60(TB) = assay: NCI 60 panel growth inhibition (SRB), leukemia; details: HL-60(TB), 10 μM
In short: as §1

K-562 = assay: NCI 60 panel growth inhibition (SRB), leukemia; details: K-562, 10 μM
In short: as §1

A498 = assay: NCI 60 panel growth inhibition (SRB), renal cancer; details: A498, 10 μM
In short: as §1

786-0 = assay: NCI 60 panel growth inhibition (SRB), renal cancer; details: 786-0, 10 μM
In short: as §1

UO-31 = assay: NCI 60 panel growth inhibition (SRB), renal cancer; details: UO-31, 10 μM
In short: as §1

SN12C = assay: NCI 60 panel growth inhibition (SRB), renal cancer; details: 10 μM
In short: as §1

CAKI-1 = assay: NCI 60 panel growth inhibition (SRB), renal cancer; details: CAKI-1, 10 μM
In short: as §1

ACHN = assay: NCI 60 panel growth inhibition (SRB), renal cancer; details: 10 μM
In short: as §1

TK-10 = assay: NCI 60 panel growth inhibition (SRB), renal cancer; details: TK-10, 10 μM
In short: as §1

RXF 393 = assay: NCI 60 panel growth inhibition (SRB), renal cancer; details: RXF 393, 10 μM
In short: as §1

SK-MEL-28 = assay: NCI 60 panel growth inhibition (SRB), melanoma; details: SK-MEL-28, 10 μM
In short: as §1

M14 = assay: NCI 60 panel growth inhibition (SRB), melanoma; details: M14, 10 μM
In short: as §1

SK-MEL-5 = assay: NCI 60 panel growth inhibition (SRB), melanoma; details: SK-MEL-5, 10 μM
In short: as §1

UACC-257 = assay: NCI 60 panel growth inhibition (SRB), melanoma; details: UACC-257, 10 μM
In short: as §1

UACC-62 = assay: NCI 60 panel growth inhibition (SRB), melanoma; details: UACC-62, 10 μM
In short: as §1

LOX IMVI = assay: NCI 60 panel growth inhibition (SRB), melanoma; details: 10 μM
In short: as §1

Row | Structure (SMILES) | GI% (MDA-MB-468) | GI% (MCF7) | GI% (HS 578T) | GI% (BT-549) | GI% (T-47D) | GI% (MDA-MB-231/ATCC) | GI% (DU-145) | GI% (PC-3) | GI% (OVCAR-8) | GI% (OVCAR-3) | GI% (IGROV1) | GI% (SK-OV-3) | GI% (OVCAR-5) | GI% (NCI/ADR-RES) | GI% (OVCAR-4) | GI% (CCRF-CEM) | GI% (RPMI-8226) | GI% (MOLT-4) | GI% (SR) | GI% (HL-60(TB)) | also measured
1 | COc1cccc(-c2nc3ccccc3s2)c1OCC(=O)NN=C1C(=O)Nc2ccc([N+](=O)[O-])cc21 [Compound 9j, 2-(2-(Benzo[d]thiazol-2-yl)-6-methoxyphenoxy)-N′-(5-nitro-2-oxoindolin-3-ylidene)acetohydrazide] | 6.21% | 25.07% | – (GI% < 5%) | – (GI% < 5%) | – (GI% < 5%) | 8.73% | 6.78% | 18.80% | – (GI% < 5%) | – (GI% < 5%) | – (GI% < 5%) | – (GI% < 5%) | – (GI% < 5%) | 6.51% | 5.61% | 34.81% | 22.11% | 9.01% | – (GI% < 5%) | – (GI% < 5%) | GI% (K-562): – (GI% < 5%); GI% (A498): – (GI% < 5%); GI% (786-0): – (GI% < 5%); GI% (UO-31): 25.41%; GI% (SN12C): 11.67%; GI% (CAKI-1): 28.19%; GI% (ACHN): 11.44%; GI% (TK-10): – (GI% < 5%); GI% (RXF 393): 9.05%; GI% (SK-MEL-28): – (GI% < 5%); GI% (M14): 8.57%; GI% (SK-MEL-5): 24.59%; GI% (UACC-257): 5.08%; GI% (UACC-62): 11.06%; GI% (LOX IMVI): – (GI% < 5%)
2 | O=C(COc1ccccc1-c1nc2ccccc2s1)NN=C1C(=O)Nc2ccccc21 [Compound 9a, 2-(2-(Benzo[d]thiazol-2-yl)phenoxy)-N′-(2-oxoindolin-3-ylidene)acetohydrazide] | – (GI% < 5%) | 25.11% | 5.85% | – (GI% < 5%) | 12.02% | – (GI% < 5%) | 6.07% | 19.26% | – (GI% < 5%) | – (GI% < 5%) | – (GI% < 5%) | – (GI% < 5%) | – (GI% < 5%) | – (GI% < 5%) | 13.08% | 20.22% | 21.80% | 8.23% | – (GI% < 5%) | – (GI% < 5%) | GI% (K-562): – (GI% < 5%); GI% (A498): – (GI% < 5%); GI% (786-0): – (GI% < 5%); GI% (UO-31): 26.54%; GI% (SN12C): 7.64%; GI% (CAKI-1): 22.46%; GI% (ACHN): – (GI% < 5%); GI% (TK-10): – (GI% < 5%); GI% (RXF 393): 5.86%; GI% (SK-MEL-28): – (GI% < 5%); GI% (M14): – (GI% < 5%); GI% (SK-MEL-5): 13.43%; GI% (UACC-257): 6.77%; GI% (UACC-62): 13.82%; GI% (LOX IMVI): – (GI% < 5%)
3 | O=C(COc1ccccc1-c1nc2ccccc2s1)NN=C1C(=O)Nc2ccc(Br)cc21 [Compound 9f, 2-(2-(Benzo[d]thiazol-2-yl)phenoxy)-N′-(5-bromo-2-oxoindolin-3-ylidene)acetohydrazide] | 63.10% | 55.39% | 75.23% | 86.84% | 60.76% | 55.33% | 14.27% | 27.83% | 71.28% | 81.63% | 42.62% | 17.03% | – (GI% < 5%) | 49.76% | 90.58% | 21.91% | 29.01% | 36.74% | 43.03% | 29.39% | GI% (K-562): 22.52%; GI% (A498): 12.61%; GI% (786-0): 101.23%; GI% (UO-31): 21.89%; GI% (SN12C): 67.11%; GI% (CAKI-1): 51.85%; GI% (ACHN): 64.71%; GI% (TK-10): 55.14%; GI% (RXF 393): 82.91%; GI% (SK-MEL-28): – (GI% < 5%); GI% (M14): 8.00%; GI% (SK-MEL-5): 43.95%; GI% (UACC-257): 13.04%; GI% (UACC-62): 25.55%; GI% (LOX IMVI): 59.05%
